According to PubChem BioAssay (NCI):
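Interpolation was linear, between the two tested concentrations surrounding the appropriate level; five concentrations were tested over 48 hours in 96-well plates. At the TGI there is no net growth.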

How the values were obtained:
Experiment in all cases: NCI-60 cell line screen, 48 h
786-0 renal = system: 786-0 renal
A498 renal = system: A498 renal
A549 NSCLC = system: A549 NSCLC
ACHN renal = system: ACHN renal
BT-549 breast = system: BT-549 breast
CAKI-1 renal = system: CAKI-1 renal
CCRF-CEM leukemia = system: CCRF-CEM leukemia
COLO 205 colon = system: COLO 205 colon
DLD-1 colon = system: DLD-1 colon
DMS 114 small cell lung = system: DMS 114 small cell lung
DMS 273 small cell lung = system: DMS 273 small cell lung
DU-145 prostate = system: DU-145 prostate
EKVX NSCLC = system: EKVX NSCLC
HCC-2998 colon = system: HCC-2998 colon
HCT-116 colon = system: HCT-116 colon
HCT-15 colon = system: HCT-15 colon
HL-60(TB) leukemia = system: HL-60(TB) leukemia
HOP-18 NSCLC = system: HOP-18 NSCLC
HOP-62 NSCLC = system: HOP-62 NSCLC
HOP-92 NSCLC = system: HOP-92 NSCLC
HS 578T breast = system: HS 578T breast
HT29 colon = system: HT29 colon
IGROV1 ovarian = system: IGROV1 ovarian
K-562 leukemia = system: K-562 leukemia
KM12 colon = system: KM12 colon
KM20L2 colon = system: KM20L2 colon
LOX IMVI melanoma = system: LOX IMVI melanoma
LXFL 529 NSCLC = system: LXFL 529 NSCLC
M14 melanoma = system: M14 melanoma
M19-MEL melanoma = system: M19-MEL melanoma
MALME-3M melanoma = system: MALME-3M melanoma
MCF7 breast = system: MCF7 breast
MDA-MB-231 breast = system: MDA-MB-231 breast
MDA-MB-435 = system: MDA-MB-435
MDA-N = system: MDA-N
MOLT-4 leukemia = system: MOLT-4 leukemia
NCI-H226 lung = system: NCI-H226 lung
NCI-H23 lung = system: NCI-H23 lung
NCI-H460 lung = system: NCI-H460 lung
NCI-H522 lung = system: NCI-H522 lung
NCI/ADR-RES ovarian = system: NCI/ADR-RES ovarian
OVCAR-3 ovarian = system: OVCAR-3 ovarian
OVCAR-4 ovarian = system: OVCAR-4 ovarian
OVCAR-5 ovarian = system: OVCAR-5 ovarian
OVCAR-8 ovarian = system: OVCAR-8 ovarian
PC-3 prostate = system: PC-3 prostate
RPMI-8226 leukemia = system: RPMI-8226 leukemia
RXF 393 renal = system: RXF 393 renal
SF-268 CNS = system: SF-268 CNS
SF-295 CNS = system: SF-295 CNS
SF-539 CNS = system: SF-539 CNS
SK-MEL-2 melanoma = system: SK-MEL-2 melanoma
SK-MEL-28 melanoma = system: SK-MEL-28 melanoma
SK-MEL-5 melanoma = system: SK-MEL-5 melanoma
SK-OV-3 ovarian = system: SK-OV-3 ovarian
SN12C renal = system: SN12C renal
SNB-19 CNS = system: SNB-19 CNS
SNB-75 CNS = system: SNB-75 CNS
SR leukemia = system: SR leukemia
SW-620 colon = system: SW-620 colon
T-47D breast = system: T-47D breast
TK-10 renal = system: TK-10 renal
U251 CNS = system: U251 CNS
UACC-257 melanoma = system: UACC-257 melanoma
UACC-62 melanoma = system: UACC-62 melanoma
UO-31 renal = system: UO-31 renal
XF 498 CNS = system: XF 498 CNS
SNB-78 CNS = system: SNB-78 CNS

With `CC(=O)OCC1C(=O)OCC1C(=O)N1Cc2cc3ccccc3nc2C1` (stereo unspecified) the TGI (786-0 renal) was 3.84 µM, the TGI (A498 renal) was 16.4 µM and the TGI (A549 NSCLC) was 30.6 µM. It also gave a TGI (ACHN renal) of 3.39 µM, a TGI (BT-549 breast) of 6.71 µM and a TGI (CAKI-1 renal) of 3.16 µM. For the same compound, the TGI (CCRF-CEM leukemia) was 3.79 µM, the TGI (COLO 205 colon) was 2.04 µM and the TGI (DLD-1 colon) was 3.37 µM. It also gave a TGI (DMS 114 small cell lung) of 29.8 µM, a TGI (DMS 273 small cell lung) of 17.8 µM and a TGI (DU-145 prostate) of 14 µM. For the same compound, the TGI (EKVX NSCLC) was 17.3 µM, the TGI (HCC-2998 colon) was 22.9 µM and the TGI (HCT-116 colon) was 3.5 µM. It also gave a TGI (HCT-15 colon) of 6.99 µM, a TGI (HL-60(TB) leukemia) of 11.9 µM and a TGI (HOP-18 NSCLC) of 10.2 µM. For the same compound, the TGI (HOP-62 NSCLC) was 32.7 µM, the TGI (HOP-92 NSCLC) was 3.77 µM and the TGI (HS 578T breast) was over 86.5 µM. The TGI (HT29 colon) was 10.3 µM, the TGI (IGROV1 ovarian) was 24 µM and the TGI (K-562 leukemia) was 9.76 µM. For the same compound, the TGI (KM12 colon) was 30.4 µM, the TGI (KM20L2 colon) was 11 µM and the TGI (LOX IMVI melanoma) was 5.66 µM. It also gave a TGI (LXFL 529 NSCLC) of 5.22 µM, a TGI (M14 melanoma) of 3.67 µM and a TGI (M19-MEL melanoma) of 21.2 µM. The TGI (MALME-3M melanoma) was 3.16 µM, the TGI (MCF7 breast) was 3.14 µM and the TGI (MDA-MB-231 breast) was 19.9 µM. For the same compound, the TGI (MDA-MB-435) was 11.9 µM, the TGI (MDA-N) was 13.1 µM and the TGI (MOLT-4 leukemia) was 4.25 µM. The TGI (NCI-H226 lung) was 18.8 µM, the TGI (NCI-H23 lung) was 14.5 µM and the TGI (NCI-H460 lung) was 28.8 µM. It also gave a TGI (NCI-H522 lung) of 2.23 µM, a TGI (NCI/ADR-RES ovarian) of 7.56 µM and a TGI (OVCAR-3 ovarian) of 6.14 µM. For the same compound, the TGI (OVCAR-4 ovarian) was 4.89 µM, the TGI (OVCAR-5 ovarian) was 15.8 µM and the TGI (OVCAR-8 ovarian) was 11.5 µM. For the same compound, the TGI (PC-3 prostate) was 20.1 µM, the TGI (RPMI-8226 leukemia) was 4.6 µM and the TGI (RXF 393 renal) was 2.57 µM. It also gave a TGI (SF-268 CNS) of 22.6 µM, a TGI (SF-295 CNS) of 29.9 µM and a TGI (SF-539 CNS) of 17.8 µM. The TGI (SK-MEL-2 melanoma) was 22.9 µM, the TGI (SK-MEL-28 melanoma) was 7.07 µM and the TGI (SK-MEL-5 melanoma) was 23.1 µM. For the same compound, the TGI (SK-OV-3 ovarian) was 31.1 µM, the TGI (SN12C renal) was 14.4 µM and the TGI (SNB-19 CNS) was 32.8 µM. It also gave a TGI (SNB-75 CNS) of 14.9 µM, a TGI (SR leukemia) of 10.7 µM and a TGI (SW-620 colon) of 1.68 µM. The TGI (T-47D breast) was 5.69 µM, the TGI (TK-10 renal) was 4.17 µM and the TGI (U251 CNS) was 24.9 µM. For the same compound, the TGI (UACC-257 melanoma) was 8.64 µM, the TGI (UACC-62 melanoma) was 7.99 µM and the TGI (UO-31 renal) was 8.15 µM. It also gave a TGI (XF 498 CNS) of 4.51 µM.
In the case of `C=C(Br)C(C)(Cl)CCC(Br)C(C)(C)Br` (stereo unspecified), the TGI (786-0 renal) is reported as over 100 µM, the TGI (A549 NSCLC) is reported as over 100 µM and the TGI (ACHN renal) is reported as over 100 µM. It also gave a TGI (CAKI-1 renal) of over 100 µM, a TGI (CCRF-CEM leukemia) of 59.6 µM and a TGI (COLO 205 colon) of over 100 µM. The TGI (DLD-1 colon) was over 100 µM, the TGI (DMS 114 small cell lung) was 76 µM and the TGI (DMS 273 small cell lung) was over 100 µM. It also gave a TGI (HCT-116 colon) of over 100 µM, a TGI (HCT-15 colon) of over 100 µM and a TGI (HL-60(TB) leukemia) of 54.5 µM. It also gave a TGI (HOP-18 NSCLC) of over 100 µM, a TGI (HOP-62 NSCLC) of over 100 µM and a TGI (HOP-92 NSCLC) of over 100 µM. It also gave a TGI (HT29 colon) of over 100 µM, a TGI (IGROV1 ovarian) of over 100 µM and a TGI (K-562 leukemia) of 80.9 µM. For the same compound, the TGI (KM12 colon) was over 100 µM, the TGI (LOX IMVI melanoma) was 50.5 µM and the TGI (LXFL 529 NSCLC) was over 100 µM. The TGI (M14 melanoma) was over 100 µM, the TGI (M19-MEL melanoma) was over 100 µM and the TGI (MALME-3M melanoma) was over 100 µM. For the same compound, the TGI (MOLT-4 leukemia) was 83.1 µM, the TGI (NCI-H226 lung) was over 100 µM and the TGI (NCI-H23 lung) was over 100 µM. For the same compound, the TGI (NCI-H460 lung) was over 100 µM, the TGI (NCI-H522 lung) was over 100 µM and the TGI (OVCAR-4 ovarian) was over 100 µM. For the same compound, the TGI (OVCAR-5 ovarian) was over 100 µM, the TGI (OVCAR-8 ovarian) was over 100 µM and the TGI (RPMI-8226 leukemia) was 67 µM. It also gave a TGI (RXF 393 renal) of over 100 µM, a TGI (SF-295 CNS) of over 100 µM and a TGI (SF-539 CNS) of over 100 µM. The TGI (SK-MEL-2 melanoma) was 80.4 µM, the TGI (SK-MEL-5 melanoma) was over 100 µM and the TGI (SK-OV-3 ovarian) was over 100 µM. For the same compound, the TGI (SN12C renal) was over 100 µM, the TGI (SNB-75 CNS) was over 100 µM and the TGI (SNB-78 CNS) was over 100 µM. For the same compound, the TGI (SR leukemia) was 51.9 µM, the TGI (SW-620 colon) was over 100 µM and the TGI (TK-10 renal) was over 100 µM. For the same compound, the TGI (U251 CNS) was over 100 µM, the TGI (UACC-257 melanoma) was over 100 µM and the TGI (UACC-62 melanoma) was over 100 µM. For the same compound, the TGI (UO-31 renal) was over 100 µM.
